# Tests used:
# [1] = 1H NMR analysis of MeSA hydrolysis in aqueous alkaline solution; format: physicochemical; details: for effect of added amino acid or derivative on MeSA hydrolysis rate: pH 9.0, aqueous solution (FIG. 4, 7, 8); for ester hydrolysis: with or without Gly at pH 9.0, within 48 hours (FIG. 4)
# Description: Direct detection and quantification of MeSA in aqueous solution is challenging due to its low water solubility. While ^1H NMR provides structural and quantitative information of the specific substrate in the aqueous mixture, the greatest limitation of NMR is its poor sensitivity. […] Typically, a high concentration of substrate is needed for NMR quantitative analysis. However, to quantify a substrate by NMR at concentrations at or below about 0.1 wt. % in water is not possible without effective solvent suppression. To overcome this hurdle, composite n/2 pulses were applied prior to pre-saturation pulses to effectively suppress the water peak of the sample.
# Studies were conducted to test how pH affects MeSA hydrolysis.
# Next, the phenolic hydroxyl group was examined to test whether it affects hydrolysis of MeSA at basic pH. The hydrolysis of two analogue compounds, namely, methyl benzoate and methyl paraben were studied as comparators.
# The t-butyloxycarbonyl (BOC) and methyl ester groups are routinely used in peptide synthesis to protect amine and carboxyl group of amino acid from reaction.
# [2] = Methyl salicylate concentration versus pH in presence of arginine, UV/Vis (FIG. 9); format: physicochemical
# Description: As shown, degradation of methyl salicylate can be substantially mitigated even in the presence of an amino acid under accelerated aging conditions. A curve for the relationship between pH and the above compositions is illustrated in FIG. 9.
Compound,ester hydrolysis [1],effect of added amino acid or derivative on MeSA hydrolysis rate [1],also measured
"COC(=O)CNC(=O)OC(C)(C)C [Boc-Gly methyl ester, reference compound]",–,significantly reduces to the same level as that of MeSA without Gly,–
"CC(C)(C)OC(=O)NCC(=O)O [Boc-Gly-OH, reference compound]",–,much faster than that of MeSA alone,–
"COC(=O)CN [Gly methyl ester, reference compound]",–,slightly faster than that of MeSA only,–
"COC(=O)c1ccccc1O [MeSA, Methyl salicylate]",significant hydrolysis,–,"MeSA degradation ([2]; pH 7.5): dramatically increases; preservation of MeSA ([2]; pH at 6.5 or 7.0): good preservation; reduction of peak intensity of the methyoxy group of MeSA ([1]; after 12 hr hydrolysis, 0.05 wt % MeSA + 0.025 wt % glycine, pH 9.0, 25° C.): about 30%; degradation of MeSA concentration (hydrolysis rate) as solution is more basic ([1]; water without amino acid, pH range 8 to 11.5 (FIG. 3)): becomes faster; MeSA hydrolysis ([1]; with Gly at pH 7.0): drastically reduced"
NCCCC[C@H](N)C(=O)O [lysine],–,accelerate the degradation of MeSA,–
"COC(=O)c1ccccc1 [methyl benzoate, reference compound]",no ester hydrolysis,–,–
"COC(=O)c1ccc(O)cc1 [methyl paraben, reference compound]",no ester hydrolysis,–,–

# Source: patent US12485073B2, “Oral care compositions and methods of use” (Colgate-Palmolive Company, priority 2019, dated 2025)
